Experimental data published in patent US20120157482A1, “COMPOUNDS AND METHODS” (priority 2009, published 2012).
Structures can show the parent of a compound that is named as a salt.

Biological target: T1, His-MBP-TEV-Full length human TNNI3K (hTNNI3K) (Homo sapiens, UniProt Q59H18)
T1 construct: His-MBP-TEV-Full length human TNNI3K (hTNNI3K); His (N); TEV cleavage site (N); made in house; host or cells: baculovirus system (printed 'Baculokinase system')
T1 sequence (Q59H18 1-835): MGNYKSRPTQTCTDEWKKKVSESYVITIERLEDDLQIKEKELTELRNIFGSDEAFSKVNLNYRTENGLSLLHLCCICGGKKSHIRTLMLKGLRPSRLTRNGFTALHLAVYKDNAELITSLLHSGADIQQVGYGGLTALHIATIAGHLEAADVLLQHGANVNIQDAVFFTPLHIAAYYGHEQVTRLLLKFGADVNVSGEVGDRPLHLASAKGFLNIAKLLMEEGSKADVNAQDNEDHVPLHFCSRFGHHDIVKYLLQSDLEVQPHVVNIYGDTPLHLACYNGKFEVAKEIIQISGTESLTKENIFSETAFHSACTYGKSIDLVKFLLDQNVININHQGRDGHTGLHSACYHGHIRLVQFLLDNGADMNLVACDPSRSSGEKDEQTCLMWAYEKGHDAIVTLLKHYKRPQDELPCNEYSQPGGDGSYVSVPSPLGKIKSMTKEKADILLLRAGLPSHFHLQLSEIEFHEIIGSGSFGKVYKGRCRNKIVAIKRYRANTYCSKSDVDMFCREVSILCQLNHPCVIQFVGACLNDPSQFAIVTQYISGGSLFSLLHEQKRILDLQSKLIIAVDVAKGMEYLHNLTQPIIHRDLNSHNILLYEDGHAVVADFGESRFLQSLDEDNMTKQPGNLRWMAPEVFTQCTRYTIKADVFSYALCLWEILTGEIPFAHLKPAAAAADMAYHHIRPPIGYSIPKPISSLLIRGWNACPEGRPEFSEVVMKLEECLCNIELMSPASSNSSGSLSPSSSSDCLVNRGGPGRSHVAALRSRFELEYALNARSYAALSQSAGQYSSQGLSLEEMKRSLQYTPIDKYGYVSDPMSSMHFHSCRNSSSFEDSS
Assay: Fluorescent polarization assay of compound inhibition on hTNNI3K ATP binding (Biological Assay Method I)
Conditions: displacement of fluorescent ligand, mean of a minimum of 2 experiments, read-out: mean pXC50 (converted)
Description: Materials: His-MBP-TEV-Full length human TNNI3K (hTNNI3K) was expressed in Baculokinase system and purified from amylase affinity column followed by Superdex200. The fluorescent ligand 5-({[2-({[3-({4-[(5-hydroxy-2-methylphenyl)amino]-2-pyrimidinyl}amino)phenyl]carbonyl}amino)ethyl]amino}carbonyl)-2-(6-hydroxy-3-oxo-3H-xanthen-9-yl)benzoic acid was used. The other buffer components, including MgCl2 (Catalog Number M1028), Bis-Tris (Catalog Number B7535), DTT (Catalog Number D9779) and Chaps (Catalog Number C3023) were purchased from Sigma-Aldrich.
A fluorescent polarization assay was used to determine does response of compound inhibition on hTNNI3K ATP binding. […]
Fifty (50) nL of inhibitors in DMSO (or DMSO controls) were stamped into a 384-well low volume Greiner black plate, followed by addition of 5 μL of Solution 1 to column 18 and 5 μL Solution 2 to columns 1-17 and 19-24 of the plate. […] After that, the fluorescent polarization was measured on Analyst (ex/em: 485/530 nm, Dichroic: 505). […]

| SMILES | IC50 [nM] |
| --- | --- |
| CNc1cc(Oc2c(C)cc(NC(=O)Nc3cccc(C(F)(F)F)c3)cc2C)ncn1 [Example 5, N-(3,5-dimethyl-4-{[6-(methylamino)-4-pyrimidinyl]oxy}phenyl)-N′-[3-(trifluoromethyl)phenyl]urea trifluoroacetate] | 25.1 |
| CNc1cc(Oc2ccc(NC(=O)Nc3cccc(C(F)(F)F)c3)cc2F)ncn1 [Example 11, N-(3-fluoro-4-{[6-(methylamino)-4-pyrimidinyl]oxy}phenyl)-N′-[3-(trifluoromethyl)phenyl]urea trifluoroacetate] | 25.1 |
